Test results taken from PubChem BioAssay (NCI).
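Exposure lasted 48 hours, with cells grown in 96-well plates and compounds tested at five concentrations. Definition used: TGI = concentration required for complete inhibition of growth.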

What was measured:
Experiment in all cases: NCI tumour cell line growth inhibition, 48 h
[1] = tested on: 786-0 renal
[2] = tested on: A498 renal
[3] = tested on: A549 NSCLC
[4] = tested on: ACHN renal
[5] = tested on: BT-549 breast
[6] = tested on: CAKI-1 renal
[7] = tested on: CCRF-CEM leukemia
[8] = tested on: COLO 205 colon
[9] = tested on: DLD-1 colon
[10] = tested on: DMS 114 small cell lung
[11] = tested on: DMS 273 small cell lung
[12] = tested on: DU-145 prostate
[13] = tested on: EKVX NSCLC
[14] = tested on: HCC-2998 colon
[15] = tested on: HCT-116 colon
[16] = tested on: HCT-15 colon
[17] = tested on: HL-60(TB) leukemia
[18] = tested on: HOP-18 NSCLC
[19] = tested on: HOP-62 NSCLC
[20] = tested on: HOP-92 NSCLC
[21] = tested on: HS 578T breast
[22] = tested on: HT29 colon
[23] = tested on: IGROV1 ovarian
[24] = tested on: K-562 leukemia
[25] = tested on: KM12 colon
[26] = tested on: KM20L2 colon
[27] = tested on: LOX IMVI melanoma
[28] = tested on: LXFL 529 NSCLC
[29] = tested on: M14 melanoma
[30] = tested on: M19-MEL melanoma
[31] = tested on: MALME-3M melanoma
[32] = tested on: MCF7 breast
[33] = tested on: MDA-MB-231 breast
[34] = tested on: MDA-MB-435
[35] = tested on: MDA-N
[36] = tested on: MOLT-4 leukemia
[37] = tested on: NCI-H226 lung
[38] = tested on: NCI-H23 lung
[39] = tested on: NCI-H460 lung
[40] = tested on: NCI-H522 lung
[41] = tested on: NCI/ADR-RES ovarian
[42] = tested on: OVCAR-3 ovarian
[43] = tested on: OVCAR-4 ovarian
[44] = tested on: OVCAR-5 ovarian
[45] = tested on: OVCAR-8 ovarian
[46] = tested on: PC-3 prostate
[47] = tested on: RPMI-8226 leukemia
[48] = tested on: RXF 393 renal
[49] = tested on: RXF-631 renal
[50] = tested on: SF-268 CNS
[51] = tested on: SF-295 CNS
[52] = tested on: SF-539 CNS
[53] = tested on: SK-MEL-2 melanoma
[54] = tested on: SK-MEL-28 melanoma
[55] = tested on: SK-MEL-5 melanoma
[56] = tested on: SK-OV-3 ovarian
[57] = tested on: SN12C renal
[58] = tested on: SNB-19 CNS
[59] = tested on: SNB-75 CNS
[60] = tested on: SNB-78 CNS
[61] = tested on: SR leukemia
[62] = tested on: SW-620 colon
[63] = tested on: T-47D breast
[64] = tested on: TK-10 renal
[65] = tested on: U251 CNS
[66] = tested on: UACC-257 melanoma
[67] = tested on: UACC-62 melanoma
[68] = tested on: UO-31 renal
[69] = tested on: XF 498 CNS

COC(=O)[C@@]12C(=O)C=CC(=O)[C@@H]1C1C(=CC2COC(C)=O)O[C@@H]2OC3(CCCCC3)O[C@H]12 (some centres not stated)
TGI [1]: 18.7 µM
TGI [2]: 37.4 µM
TGI [3]: 22.4 µM
TGI [4]: 23.9 µM
TGI [5]: 26 µM
TGI [6]: 25.4 µM
TGI [7]: 17 µM
TGI [8]: 18.4 µM
TGI [9]: 22.7 µM
TGI [10]: 13.5 µM
TGI [11]: 23.6 µM
TGI [12]: 32.2 µM
TGI [13]: 32.8 µM
TGI [14]: 30.4 µM
TGI [15]: 15.5 µM
TGI [16]: 18.7 µM
TGI [17]: > 25.6 µM
TGI [18]: 24.9 µM
TGI [19]: 35 µM
TGI [20]: 21.2 µM
TGI [21]: 31.6 µM
TGI [22]: 19.3 µM
TGI [23]: 31.6 µM
TGI [24]: 43.8 µM
TGI [25]: 26.5 µM
TGI [26]: 31.8 µM
TGI [27]: 24.6 µM
TGI [28]: 15 µM
TGI [29]: 30.1 µM
TGI [30]: 29.6 µM
TGI [31]: 30.2 µM
TGI [32]: 32.3 µM
TGI [33]: 39.9 µM
TGI [34]: 29.8 µM
TGI [35]: 25.1 µM
TGI [36]: 21 µM
TGI [37]: 32.4 µM
TGI [38]: 35.9 µM
TGI [39]: 32.9 µM
TGI [40]: 6.29 µM
TGI [41]: 28.7 µM
TGI [42]: 17.1 µM
TGI [43]: 19.7 µM
TGI [44]: 30.7 µM
TGI [45]: 20 µM
TGI [46]: 25.3 µM
TGI [47]: 22.7 µM
TGI [48]: 23.4 µM
TGI [49]: 50 µM
TGI [50]: 23.7 µM
TGI [51]: 29.7 µM
TGI [52]: 24.7 µM
TGI [53]: 37.3 µM
TGI [54]: 32.7 µM
TGI [55]: 32.5 µM
TGI [56]: 30 µM
TGI [57]: 29.1 µM
TGI [58]: 29.8 µM
TGI [59]: 26.4 µM
TGI [60]: 51 µM
TGI [61]: > 100 µM
TGI [62]: 12.1 µM
TGI [63]: 13.2 µM
TGI [64]: 20.6 µM
TGI [65]: 29.2 µM
TGI [66]: 30.3 µM
TGI [67]: 25.9 µM
TGI [68]: 28.3 µM
TGI [69]: 26.3 µM

CCc1ccc(N=Cc2cc(OC)c(OC)c(OC)c2)cc1
TGI [1]: > 100 µM
TGI [2]: > 100 µM
TGI [3]: > 100 µM
TGI [4]: > 100 µM
TGI [6]: > 100 µM
TGI [7]: > 100 µM
TGI [8]: > 100 µM
TGI [9]: > 100 µM
TGI [10]: 76.1 µM
TGI [11]: > 100 µM
TGI [13]: > 100 µM
TGI [15]: > 100 µM
TGI [16]: > 100 µM
TGI [17]: > 100 µM
TGI [18]: > 100 µM
TGI [19]: > 100 µM
TGI [20]: > 100 µM
TGI [22]: > 100 µM
TGI [23]: > 100 µM
TGI [24]: 73.3 µM
TGI [25]: > 100 µM
TGI [26]: > 100 µM
TGI [27]: > 100 µM
TGI [28]: > 100 µM
TGI [29]: > 100 µM
TGI [30]: > 100 µM
TGI [31]: > 100 µM
TGI [36]: > 100 µM
TGI [38]: > 100 µM
TGI [39]: > 100 µM
TGI [40]: > 100 µM
TGI [42]: > 100 µM
TGI [43]: > 100 µM
TGI [44]: > 100 µM
TGI [45]: > 100 µM
TGI [47]: 47.2 µM
TGI [48]: > 100 µM
TGI [50]: > 100 µM
TGI [51]: > 100 µM
TGI [52]: > 100 µM
TGI [53]: > 100 µM
TGI [54]: > 100 µM
TGI [55]: > 100 µM
TGI [56]: > 100 µM
TGI [57]: > 100 µM
TGI [58]: > 100 µM
TGI [59]: > 100 µM
TGI [60]: > 100 µM
TGI [62]: 28.7 µM
TGI [64]: > 100 µM
TGI [65]: > 100 µM
TGI [66]: > 100 µM
TGI [67]: > 100 µM
TGI [68]: > 100 µM
TGI [69]: > 100 µM

Cc1cc(N(CCC#N)CCC#N)ccc1/C=C1N=C(/C=C\c2ccccc2)OC\1=O
TGI [1]: > 100 µM
TGI [2]: > 100 µM
TGI [3]: > 100 µM
TGI [4]: > 100 µM
TGI [6]: > 100 µM
TGI [7]: > 100 µM
TGI [8]: > 100 µM
TGI [9]: > 100 µM
TGI [10]: > 100 µM
TGI [11]: > 100 µM
TGI [13]: > 100 µM
TGI [14]: > 100 µM
TGI [15]: > 100 µM
TGI [16]: > 100 µM
TGI [17]: > 100 µM
TGI [18]: > 100 µM
TGI [19]: > 100 µM
TGI [20]: > 100 µM
TGI [22]: > 100 µM
TGI [23]: > 100 µM
TGI [24]: > 100 µM
TGI [25]: > 100 µM
TGI [26]: > 100 µM
TGI [27]: > 100 µM
TGI [28]: > 100 µM
TGI [29]: > 100 µM
TGI [30]: > 100 µM
TGI [31]: > 100 µM
TGI [36]: > 100 µM
TGI [37]: > 100 µM
TGI [38]: > 100 µM
TGI [39]: > 100 µM
TGI [40]: > 100 µM
TGI [42]: > 100 µM
TGI [43]: > 100 µM
TGI [44]: > 100 µM
TGI [45]: > 100 µM
TGI [47]: > 100 µM
TGI [48]: > 100 µM
TGI [50]: > 100 µM
TGI [51]: > 100 µM
TGI [52]: > 100 µM
TGI [53]: > 100 µM
TGI [54]: > 100 µM
TGI [55]: > 100 µM
TGI [56]: > 100 µM
TGI [57]: > 100 µM
TGI [58]: > 100 µM
TGI [59]: > 100 µM
TGI [60]: > 100 µM
TGI [61]: > 100 µM
TGI [62]: > 100 µM
TGI [64]: > 100 µM
TGI [65]: > 100 µM
TGI [66]: > 100 µM
TGI [67]: > 100 µM
TGI [68]: > 100 µM
TGI [69]: > 100 µM
